This is an account of results in PMC8067632, “Assessment and Development of the Antifungal Agent Caspofungin for Aerosolized Pulmonary Delivery” (Pharmaceutics, 2021).

For data set [1], the system named is Candida albicans ATCC44858. In words: microbe, parasite or virus in culture. The data set is classed as cell-based. Conditions: CLSI broth microdilution, visual, duplicate. The method, then: (§1) Antifungal potency of the test article(s) was measured using the in vitro broth microdilution assay under test conditions described by the Clinical and Laboratory Standards Institute. Minimum Inhibitory Concentration (MIC) is defined as the lowest concentration of an agent that causes a specified reduction in visible growth of the microorganism. Minimum Effective Concentration (MEC) is defined as the lowest concentration of an agent that leads to the growth of small, rounded, compact hyphal forms, as compared to the hyphal growth typically seen in the growth control well. MIC values were determined for 9 Candida spp., and MEC values were determined for filamentous fungus species (Aspergillus fumigatus and Trichophyton rubrum). Details of the test article preparations and methodologies are described in Supplementary Material S1.
(§2) Following incubation, the test plates were visually examined and wells were scored for growth or complete growth inhibition to define the MIC values. Microscopy examination was used to determine the MEC values. Each test substance was evaluated in duplicate and the results are the duplicate test values. Vehicle-control and an active reference agent were used as blank and positive controls, respectively. […]
(§3) S1. In Vitro Testing, Test Article Preparations
(§4) The 5 mg/mL stock solution was prepared as the following. The refrigerated vial was equilibrated to room temperature. Test vial was reconstituted aseptically with 10.5 mL 0.9% NaCl. The powder was dissolved completely, mixing until a clear solution was ob-tained. The final concentration was 5.0 mg/mL of caspofungin freebase. The reconstituted solution was stable for 1 hr at room temperature. The 5 mg/mL stock solution was then […]
(§5) The refrigerated vial was equilibrated to room temperature. The powder was dis-solved completely, mixing until a clear solution was obtained. Test vial was reconstituted aseptically with 1.8 mL 0.9% NaCl. The white to off-white powder was dissolved com-pletely, mixing gently until a clear solution was obtained. The final concentration was 5.0 mg/mL of caspofungin freebase. The reconstituted solution was used within 1 hr at room temperature. The 5 mg/mL stock solution was then diluted with 0.9% NaCl to prepare the […]
(§6) 1.3. Caspofungin Diacetate
(§7) The 5 mg/mL API stock solution was prepared as the following. The refrigerated vial was equilibrated to room temperature. Test vial was filled aseptically with 1.8 mL 0.9%
(§8) NaCl. The powder was dissolved completely, mixing until a clear solution was obtained.
(§9) The final concentration was 5.0 mg/mL of caspofungin freebase. The reconstituted solu-tion was used within 1 hr at room temperature. The 5 mg/mL stock solution was then […]
(§10) g compound, corresponding to 1.2 mg active compound with a correction factor of 2.40 was added 0.375 mL of water for injection to generate the 3.2 mg/mL working stock solution for testing. The 3.2 mg/mL working stock solution was 2-fold diluted seri-ally in 0.9% NaCl to prepare a total of eleven 50-fold stock solutions, concentrations rang-ing from 3.2 to 0.003 mg/mL. A 4 μL aliquot of each dilution was added to 196 μL of broth medium seeded with the organism suspension in wells of a 96 well plate (fungal cell count: 1 x 10^3 to 1 x 10^4 colony forming units per mL). The final volume was 200 μL in each […]

The subject of data set [2] is Candida albicans ATCC90028 + 50%human serum. In words: microbe, parasite or virus in culture. Particulars: CLSI broth microdilution, duplicate. The data set is classed as cell-based. The method, then: as §1, §2, §3, §4, §5, §6, §7, §8, §9, §10
In general terms: Broth dilution looks for growth in wells or tubes with falling amounts of substance.

In data set [3] the test system is Candida albicans ATCC90028. In words: microbe, parasite or virus in culture. It counts as cell-based. Particulars: CLSI broth microdilution, visual, duplicate. The method, then:
as §1, §2, §3, §4, §5, §6, §7, §8, §9, §10

In data set [4] the test system is Candida albicans Azole-R (20183.073). In words: microbe, parasite or virus in culture. Conditions: CLSI broth microdilution, azole-resistant strain, duplicate. It counts as cell-based. The method, then: as §1, §2, §3, §4, §5, §6, §7, §8, §9, §10
For data set [5], the system named is Candida albicans Azole-R (20186.025). As to the kind of experiment: microbe, parasite or virus in culture. The data set is classed as cell-based. Conditions: CLSI broth microdilution, azole-resistant strain, duplicate. The method, then:
as §1, §2, §3, §4, §5, §6, §7, §8, §9, §10

In data set [6] the test system is Candida glabrata ATCC 36583. In words: microbe, parasite or virus in culture. The data set is classed as cell-based. Conditions: CLSI broth microdilution, duplicate. The method, then:
as §1, §2, §3, §4, §5, §6, §7, §8, §9, §10

The next data set concerns Candida krusei ATCC 6258. As to the kind of experiment: microbe, parasite or virus in culture. It counts as cell-based. Particulars: CLSI broth microdilution, duplicate. The method, then:
as §1, §2, §3, §4, §5, §6, §7, §8, §9, §10

For data set [7], the system named is Candida parapsilosis ATCC 22019. As to the kind of experiment: microbe, parasite or virus in culture. Conditions: CLSI broth microdilution, duplicate. It counts as cell-based. The method, then: as §1, §2, §3, §4, §5, §6, §7, §8, §9, §10
The test system of data set [8] is Candida tropicalis ATCC 200956. In words: microbe, parasite or virus in culture. It counts as cell-based. Conditions: CLSI broth microdilution, duplicate. The method, then:
as §1, §2, §3, §4, §5, §6, §7, §8, §9, §10

A short description of data set [9]: Stability of lyophilized formulations by HPLC. It counts as physicochemical. Particulars: caspofungin API lyophilized alone from water, 0 months; HPLC UV 220 nm.
Experimental: Lyophilization was accomplished using a VirTis benchtop manifold lyophilizer (SP Scientific, Stone Ridge, NY, USA) under vacuum of <50 mTorr. […] High-performance liquid chromatography (HPLC) analysis was carried out on a Waters 2695 separations module (Waters Corporation, Milford, MA, USA) equipped with an autosampler and a Waters 996 photodiode array detector. For impurity determinations a Waters Symmetry (Waters Corporation, Milford, MA, USA) C18 3.5 µm, 4.6 × 75 mm column was used. For weight-weight assay a Waters Symmetry C18 Column (Waters Corporation, Milford, MA, USA), 3.5 µm, 4.6 mm × 100 mm column was employed. […] Reconstituted stability analyses were analyzed using the above HPLC methods.
The stability of the lyophilized formulations was studied under two sets of temperature conditions, 2–5 °C and 25 °C. […] At the specified time points the test articles were reconstituted with normal saline to yield a 10 mg/mL solution for HPLC assay. For comparison, we also lyophilized caspofungin API alone.
HPLC analysis was carried out on a Waters 2695 separations module equipped with
an autosampler and a Waters 996 photodiode array detector. The HPLC method is de-
Column: Waters symmetry C18 3.5 μm, 4.6 x 75 mm
Column Temperature: 30 °C
Autosampler temperature: 4 °C
Mobile phase: A: Add 1.0 mL of perchloric acid and 0.75 g of sodium chloride in 1000
mL HPLC grade water; B: Acetonitrile. […]

Molecules are shown by their SMILES.

On to `CC[C@H](C)C[C@H](C)CCCCCCCCC(=O)N[C@H]1C[C@@H](O)[C@@H](NCCN)NC(=O)[C@@H]2[C@@H](O)CCN2C(=O)[C@H]([C@H](O)CCN)NC(=O)[C@H]([C@H](O)[C@@H](O)c2ccc(O)cc2)NC(=O)[C@@H]2C[C@@H](O)CN2C(=O)[C@H]([C@@H](C)O)NC1=O` [Caspofungin Diacetate], for which the MIC was determined as 0.25 µg/mL in [1]; 0.125 µg/mL in [2]; 0.25 µg/mL in data set [3]; 0.25 µg/mL in data set [4]; 0.25 µg/mL in data set [5]; 0.25 µg/mL in data set [6]. The figures for the MIC (in the data set on Candida krusei ATCC 6258; in [7]; in data set [8]) were 1 µg/mL, 1 µg/mL and 0.25 µg/mL, respectively. Further, in data set [9], the “HPLC Purity %” value is 95.42%.
